Earlier results in patent US10751328B2, “Therapy for chronic idiopathic urticaria, anaphylaxis and angioedema” (priority 2013, dated 2020).
Blank lines part the entries; values can stand above or below the molecule they belong to.

Legend:
[1] = tested on: chronic idiopathic urticaria symptoms; details: patients with chronic idiopathic urticaria symptomatic despite approved doses of H1-antihistamines; 139 patients
[2] = tested on: wheal and flare reaction; details: versus histamine
[3] = tested on: white blood cell counts (eosinophil, basophils); details: ALS subjects, 150 mg twice daily up to 18 months, monthly CBCs; FIGS. 1 to 4 (prior art poster)
[4] = dihydrochloride monohydrate salt, crystalline

Molecule: omalizumab: agent effective in chronic idiopathic urticaria through its reduction of FcεRI function in basophils and mast cells
effect on symptoms [1]: beneficial effects on symptoms

Molecule: CCCCC/C=C\C\C=C/C=C/C=C/[C@@H](SC[C@H](NC(=O)CC[C@H](N)C(=O)O)C(=O)NCC(=O)O)[C@@H](O)CCCC(=O)O [LTC4, leukotriene C4]
potency relative to histamine in causing wheal and flare reaction [2]: about 1,000 times

Molecule: CCCN[C@@H]1CCc2nc(N)sc2C1 [Dexpramipexole, (6R)-4,5,6,7-tetrahydro-N6-propyl-2,6 benzothiazole diamine]
effect on white blood cell counts [3]: reduce white blood cell counts, especially eosinophil and basophils

solubility in water [4]: extremely well soluble in water
Molecule: CCCN[C@H]1CCc2nc(N)sc2C1 [pramipexole, (6S)-2-amino-4,5,6,7-tetrahydro-6-(propylamino)benzothiazole]
